In patent US8076488B2, “Bicyclic urea derivatives useful in the treatment of cancer and other disorders” (Bayer Healthcare LLC, priority 2003, dated 2011):

Biological target: T1, c-Raf kinase (Lck-activated c-Raf, Raf-1) (Homo sapiens, UniProt P04049)
T1 construct: GST-c-Raf (from amino acid 302 to amino acid 648); made in house; host or cells: Sf9 insect cells (baculovirus; co-infection with full-length Lck)
Assay: c-Raf (Raf-1) biochemical assay (radioactive filtermat assay, MEK-1 substrate)
Conditions: at 1 micromolar compound; 5 μM ATP, 32° C., 1 hour
Method: Biological Tests c-Raf (Raf-1) Biochemical Assay Purification of Proteins Used in the Assay
The c-Raf biochemical assay was performed with a c-Raf enzyme that was activated (phosphorylated) by Lck kinase. Lck-activated c-Raf (Lck/c-Raf) was produced in Sf9 insect cells by co-infecting cells with baculoviruses expressing, under the control of the polyhedrin promoter, GST-c-Raf (from amino acid 302 to amino acid 648) and Lck (full-length). Both baculoviruses were used at the multiplicity of infection of 2.5 and the cells were harvested 48 hours post infection.
MEK-1 protein was produced in Sf9 insect cells by infecting cells with the baculovirus expressing GST-MEK-1 (full-length) fusion protein at the multiplicity of infection of 5 and harvesting the cells 48 hours post infection. Similar purification procedure was used for GST-c-Raf 302-648 and GST-MEK-1.
Transfected cells were suspended at 100 mg of wet cell biomass per mL in a buffer containing 10 mM sodium phosphate, 140 mM sodium chloride pH 7.3, 0.5% Triton X-100 and the protease inhibitor cocktail. The cells were disrupted with Polytron homogenizer and centrifuged 30,000 g for 30 minutes. The 30,000 g supernatant was applied onto GSH-Sepharose. The resin was washed with a buffer containing 50 mM Tris, pH 8.0, 150 mM NaCl and 0.01% Triton X-100. The GST-tagged proteins were eluted with a solution containing 100 mM Glutathione, 50 mM Tris, pH 8.0, 150 mM NaCl and 0.01% Triton X-100. The purified proteins were dialyzed into a buffer containing 20 mM Tris, pH 7.5, 150 mM NaCl and 20% Glycerol.
Biochemical Assay Protocol and Results
The compounds were serially diluted in DMSO using three-fold dilutions to stock concentrations ranging typically from 50 μM to 20 nM (final concentrations in the assay range from 1 μM to 0.4 nM). The c-Raf biochemical assay was performed as a radioactive filtermat assay in 96-well Costar polypropylene plates (Costar 3365). The plates were loaded with 75 μL solution containing 50 mM HEPES pH 7.5, 70 mM NaCl, 80 ng of Lck/c-Raf and 1 μg MEK-1. Subsequently, 2 μL of the serially diluted individual compounds were added to the reaction, prior to the addition of ATP. The reaction was initiated with 25 μL ATP solution containing 5 μM ATP and 0.3 μCi [33P]-ATP. The plates were sealed and incubated at 32° C. for 1 hour. The reaction was quenched with the addition of 50 μl of 4% Phosphoric Acid and harvested onto P30 filtermats (PerkinElmer) using a Wallac Tomtec Harvester. Filtermats were washed with 1% Phosphoric Acid first and deinonized H2O second. The filters were dried in a microwave, soaked in scintillation fluid and read in a Wallac 1205 Betaplate Counter (Wallac Inc., Atlanta, Ga., U.S.A.). The results were expressed as percent inhibition. % Inhibition=[[…]]×100 where • Tib=(counts per minute with inhibitor)−(background) • Ti=(counts per minute without inhibitor)−(background)

T1 sequence (P04049 302-648): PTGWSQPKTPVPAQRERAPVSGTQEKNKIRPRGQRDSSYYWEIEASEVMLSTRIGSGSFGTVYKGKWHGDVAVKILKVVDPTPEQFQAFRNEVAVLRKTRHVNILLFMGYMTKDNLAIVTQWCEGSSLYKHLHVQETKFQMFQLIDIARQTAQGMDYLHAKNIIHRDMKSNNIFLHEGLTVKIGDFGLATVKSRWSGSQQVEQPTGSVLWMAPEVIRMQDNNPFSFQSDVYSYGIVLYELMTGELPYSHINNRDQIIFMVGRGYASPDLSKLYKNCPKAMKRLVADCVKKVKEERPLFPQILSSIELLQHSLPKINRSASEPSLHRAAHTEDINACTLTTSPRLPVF

Inhibition at 1 µM, > 40%:
Cn1ncc2cc(NC(=O)Nc3ccc(Oc4ccnc(C(=O)NCCN5CCCC5)c4)cc3)ccc21 [Example 156], Cn1ncc2cc(NC(=O)Nc3ccc(Oc4ccnc(C(=O)NCCN5CCNCC5)c4)cc3)ccc21 [Example 157], O=C(Nc1ccc(Oc2ccnc(C(=O)NCCCn3ccnc3)c2)cc1)Nc1ccc2c(c1)OCCO2 [Example 158], O=C(Nc1ccc(Oc2ccnc(C(=O)NCCN3CCCC3)c2)cc1)Nc1ccc2c(c1)OCCO2 [Example 159], Cn1ncc2cc(NC(=O)Nc3ccc(Oc4ccnc(C(=O)NCCCn5ccnc5)c4)cc3)ccc21 [Example 160], Cn1ncc2cc(NC(=O)Nc3ccc(Oc4ccnc(C(=O)NCCN5CCCCC5)c4)cc3)ccc21 [Example 161], Cn1ncc2cc(NC(=O)Nc3ccc(Oc4ccnc(C(=O)NCC5CC5)c4)cc3)ccc21 [Example 162], Cn1ncc2cc(NC(=O)Nc3ccc(Oc4ccnc(C(=O)NC5CCC5)c4)cc3)ccc21 [Example 163], Cn1ncc2cc(NC(=O)Nc3cccc(Oc4ccnc(C(=O)NCCCn5ccnc5)c4)c3)ccc21 [Example 166], O=C(Nc1cccc(Oc2ccnc(C(=O)NCCN3CCCC3)c2)c1)Nc1ccc2c(c1)C(F)(F)OC(F)(F)O2 [Example 168], O=C(Nc1cccc(Oc2ccnc(C(=O)Nc3cccnc3)c2)c1)Nc1ccc2c(c1)C(F)(F)OC(F)(F)O2 [Example 169]
